From PubChem BioAssay AID816 (SRMLSC, 2007)
The source made the active and inactive calls. No rule for the calls is given here.

Each molecule was assayed on S. cerevisiae GAL1 promoter reporter activation counterscreen (assay: yeast Gal1p promoter activation – S. cerevisiae, artefact control for yeast lifespan extension project (AID 816);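 also: yeast growth read after 24 h of incubation with compounds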).
O=C1CC(c2ccccc2)CC(O)=C1C=NCCN1CCN(C(=O)Cc2ccccc2)CC1 (stereo unspecified) was tested, and the EC50 was > 40 µM (inactive).
For CCc1ccc(CC2S/C(=C(\C#N)C(C)=O)NC2=O)cc1 (stereo unspecified), the EC50 was > 40 µM (inactive).
With Cc1ccc2nc(-c3ccc(NC(=O)CSc4ccccc4)cc3)[nH]c2c1 the EC50 was > 40 µM (inactive).
For CCCC[n+]1c(-c2ccc(Cl)cc2Cl)csc1Nc1ccccc1, the EC50 was > 40 µM (inactive).
With COc1ccccc1CN(Cc1nc2ccccc2c(=O)[nH]1)C(=O)Nc1cccc(C)c1 the EC50 was > 40 µM (inactive).
For O=C(Oc1ccc2c(c1)OCO2)C12CC3CC(CC(C3)C1)C2, the EC50 was > 40 µM (inactive).
In the case of CC1(C)CC(=O)c2sc(NS(C)(=O)=O)nc2C1, the EC50 is reported as > 40 µM (inactive).
CC(=O)[C@H]1[C@H](c2cccc(Cl)c2)C(C#N)(C#N)[C@@H]2c3ccccc3C=CN21 was tested, and the EC50 was > 40 µM (inactive).
In the case of Cc1n[nH]c(=O)n1-c1cccc(C(F)(F)F)c1, the EC50 is reported as > 40 µM (inactive).
For Nn1c(-c2ccccn2)nnc1-c1ccccn1, the EC50 was > 40 µM (inactive).
In the case of Cc1ccc(C(=O)C2C(=O)c3ccccc3C2=O)cc1, the EC50 is reported as > 40 µM (inactive).
For O=c1c2ccccc2nc(-c2ccc(Cl)c(Cl)c2)n1O, the EC50 was > 40 µM (inactive).
For CC(=O)Oc1ccc(N(C(C)=O)S(=O)(=O)c2ccc(C)c([N+](=O)[O-])c2)cc1, the EC50 was > 40 µM (inactive).
In the case of CCOc1cc(/C=C\[N+](=O)[O-])ccc1OCC(=O)Nc1ccccc1C, the EC50 is reported as > 40 µM (inactive).
With CN1C(=O)C(C(=O)Nc2ccccc2F)c2ccccc21 (stereo unspecified) the EC50 was > 40 µM (inactive).
CCOC(=O)/C(=C/c1ccc(OC(=O)c2ccccc2)cc1)C(C)=O was tested, and the EC50 was > 40 µM (inactive).
For O=C(CCl)N1c2ccccc2OCC1c1ccccc1 (stereo unspecified), the EC50 was > 40 µM (inactive).
With CN1CCN(CC(=O)Nc2ccc(Cl)cc2Cl)CC1 the EC50 was > 40 µM (inactive).
C=CCn1c(C)cc(C(=O)COc2ncnc3sccc23)c1C was tested, and the EC50 was > 40 µM (inactive).
For O=C1C(=C(O)c2ccccc2)C(=O)c2ccccc21, the EC50 was > 40 µM (inactive).
For O=C(N/N=C/c1ccccc1)c1c(O)c2ccccc2[nH]c1=O, the EC50 was > 40 µM (inactive).
For COc1ccc2c3c(cccc13)C(=O)N(O)C2=O, the EC50 was > 40 µM (inactive).
For COc1cnc(-c2ccccn2)nc1Sc1cccc(Cl)c1, the EC50 was > 40 µM (inactive).
Cc1ccc(N/C(C(Cl)=C(Cl)Cl)=C(/Cl)[N+](=O)[O-])c(C)c1 was tested, and the EC50 was > 40 µM (inactive).
For C/C(=N\NC(=O)c1cccc(Cl)c1)C1C(=O)c2ccccc2C1=O, the EC50 was > 40 µM (inactive).
O=C(CCN1CCCCCC1)Nc1ccc(F)cc1 was tested, and the EC50 was > 40 µM (inactive).
CCOC(=O)CCCNC(=O)COc1ccccc1C#N was tested, and the EC50 was > 40 µM (inactive).
CCN1C(=O)C(=Cc2ccc(C)s2)C(=O)N(CC)C1=S was tested, and the EC50 was > 40 µM (inactive).
In the case of Cc1cc(NS(=O)(=O)c2ccc(CC(C)C)cc2)no1, the EC50 is reported as > 40 µM (inactive).
For CCCn1c(C)cc(C(=O)COc2ncnc3sccc23)c1C, the EC50 was > 40 µM (inactive).
For CCOC(=O)C1Cc2cc3c(cc2C1=O)CC(C(=O)OCC)C3=O (stereo unspecified), the EC50 was > 40 µM (inactive).
c1ccc(-c2c(-c3ccccc3)n(Cc3ccco3)c3ncnc(NCCCn4ccnc4)c23)cc1 was tested, and the EC50 was > 40 µM (inactive).
With COCCN(CCOC)S(=O)(=O)c1ccc(C(=O)Nc2sc3c(c2C(N)=O)CCCCC3)cc1 the EC50 was > 40 µM (inactive).
With Cc1ccc(/C(O)=C2\C(=O)C(=O)N(c3cc(C)on3)C2c2cccc(Cl)c2)cc1 (stereo unspecified) the EC50 was > 40 µM (inactive).
In the case of O=[N+]([O-])c1cc2oc3c(c2c(C=NCc2ccncc2)c1O)CCCC3, the EC50 is reported as > 40 µM (inactive).
For Cc1nonc1NC(=O)CSc1nc(C2CCCCC2)nc2ccccc12, the EC50 was > 40 µM (inactive).
With CN1C(=O)NC(c2ccc(O)cc2)C(C(=O)c2cccs2)C1(O)C(F)(F)F (stereo unspecified) the EC50 was > 40 µM (inactive).
With O=c1[nH]c2ccccc2nc1C(Cl)c1ccccc1 (stereo unspecified) the EC50 was > 40 µM (inactive).
With CCSc1ccccc1C(=O)n1nnc2ccccc21 the EC50 was > 40 µM (inactive).
With COc1ccc(/C=N/NC(=O)c2csc(-n3nc(C)cc3C(F)(F)F)n2)cc1 the EC50 was > 40 µM (inactive).
With COc1cccc(C(=O)Oc2cc(N)n(S(=O)(=O)c3ccc(C)cc3)n2)c1OC the EC50 was > 40 µM (inactive).
With O=C(NC(=S)NNC(=O)c1ccccc1O)c1ccco1 the EC50 was > 40 µM (inactive).
With ClC(Cl)(c1nnnn1-c1ccccc1)c1nnnn1-c1ccccc1 the EC50 was > 40 µM (inactive).
In the case of Cc1ccc(S(=O)(=O)N[C@@H](Cc2ccccc2)C(=O)CCl)cc1, the EC50 is reported as > 40 µM (inactive).
Cc1ccccc1NC(=O)c1ccccc1 was tested, and the EC50 was > 40 µM (inactive).
CC(C)c1noc2ncc(C(=O)c3cc(Cl)cc(Cl)c3O)cc12 was tested, and the EC50 was > 40 µM (inactive).
For COc1cc(OC)cc(-c2nc3ccccc3c(=O)n2OC(=O)c2ccccc2C)c1, the EC50 was > 40 µM (inactive).
With Oc1ccc(Br)cc1C=Nc1ccc2[nH]ncc2c1 the EC50 was > 40 µM (inactive).
For O=C(NCc1cccnc1)c1ccc(S(=O)(=O)N2CCCCC2)cc1, the EC50 was > 40 µM (inactive).
O=S(=O)(CCSc1ccccn1)c1nc2ccccc2s1 was tested, and the EC50 was > 40 µM (inactive).
In the case of C/C(=N\NC(=O)c1ccccc1O)c1c(O)cc(C)oc1=O, the EC50 is reported as > 40 µM (inactive).
For CC(C)OCCCNS(=O)(=O)c1ccc2ccccc2c1, the EC50 was > 40 µM (inactive).
For CCc1oc2ccccc2c1C(=O)CCN1CCCCC1, the EC50 was > 40 µM (inactive).
For CCOC(=O)CS(=O)(=O)c1nc(-c2ccc(F)cc2)cc(C(F)(F)F)n1, the EC50 was > 40 µM (inactive).
For O=S1(=O)C=C(Sc2nc3ccccc3s2)c2ccccc21, the EC50 was > 40 µM (inactive).
In the case of O=C1/C(=N/n2cnnc2)c2ccccc2N1Cc1ccccc1, the EC50 is reported as > 40 µM (inactive).
For CCCCCC1CC1C(=O)N/N=C/c1ccc(N(C)C)cc1 (stereo unspecified), the EC50 was > 40 µM (inactive).
For Cc1ccc2[nH]c(=O)c(CN(CCO)Cc3nnnn3CCc3ccccc3)cc2c1, the EC50 was > 40 µM (inactive).
With O=C(NC(=S)Nc1nc2c(s1)CSc1ccccc1-2)c1ccccc1 the EC50 was > 40 µM (inactive).
With Cc1ccc2[nH]c3c(c2c1)CC/C(=C/c1ccccc1)C3=O the EC50 was > 40 µM (inactive).
For CCCC(=Nc1ccccc1OC)C1=C(O)CC(c2ccccc2)CC1=O (stereo unspecified), the EC50 was > 40 µM (inactive).
For CCN1CCCC1CNC(=O)COc1cc(=O)n(C)c2ccccc12 (stereo unspecified), the EC50 was > 40 µM (inactive).
For Nc1sc(-c2ccccc2)cc1C(=O)O, the EC50 was > 40 µM (inactive).
With Cc1ccc(C(=O)/C=C\C(=O)c2ccc(C)cc2)cc1 the EC50 was > 40 µM (inactive).
In the case of O=C1c2ccccc2C(=O)N1OCc1ccccc1, the EC50 is reported as > 40 µM (inactive).
With O=C(N/N=C/c1cccc(F)c1)c1c(O)c2ccccc2[nH]c1=O the EC50 was > 40 µM (inactive).
COCCCNc1c2c3c(cccc3[nH]c1=O)C(=O)c1ccccc1-2 was tested, and the EC50 was > 40 µM (inactive).
Cn1c(=O)c2c(nc(Br)n2Cc2ccc3ccccc3c2)n(C)c1=O was tested, and the EC50 was > 40 µM (inactive).
With CC(C)C(OC(=O)CN1C(=O)COc2ccccc21)C(=O)NC1CCCC1 (stereo unspecified) the EC50 was > 40 µM (inactive).
In the case of O=C(c1ccccc1)c1nc2ccccc2[nH]c1=O, the EC50 is reported as > 40 µM (inactive).
With O=C1/C(=C\c2cccnc2)CN(Cc2ccccc2)C/C1=C\c1cccnc1 the EC50 was > 40 µM (inactive).
With O=C(NCC1CCCO1)c1c(O)c2ccccc2[nH]c1=O (stereo unspecified) the EC50 was > 40 µM (inactive).
With CSC1=NSC2=NC(=O)/C(=C\c3cccs3)C(=N)N12 the EC50 was > 40 µM (inactive).
In the case of O=c1cc(-c2ccccc2Cl)oc2ccc([N+](=O)[O-])c(O)c12, the EC50 is reported as > 40 µM (inactive).
In the case of CN(C)c1ccc(S(=O)(=O)c2ccc(Cl)cc2)cc1, the EC50 is reported as > 40 µM (inactive).
CCOC(=O)CC1=NN(c2ccccc2)C(=O)/C1=C\c1ccc(OC)cc1OC was tested, and the EC50 was > 40 µM (inactive).
For O=C(N/N=C/c1ccc(F)cc1)c1c(O)c2ccccc2[nH]c1=O, the EC50 was > 40 µM (inactive).
With CCCCOC(=O)n1c(=O)oc2cc(S(=O)(=O)N3CCCCC3)ccc21 the EC50 was > 40 µM (inactive).
O=C(c1ccccc1)C(CN1CCCC1)c1ccccc1 (stereo unspecified) was tested, and the EC50 was > 40 µM (inactive).
For COc1ccc(CC(=O)Nc2ccc3c(c2)CCC3)cc1S(=O)(=O)N1CCOCC1, the EC50 was > 40 µM (inactive).
In the case of COc1cccc(/C=C/C(=O)c2c(O)cc(C)oc2=O)c1O, the EC50 is reported as > 40 µM (inactive).
CC(C)(C)OC(=O)[C@H]1[C@H](c2ccc([N+](=O)[O-])cc2)C2(C(=O)c3ccccc3C2=O)C2c3ccccc3C=NN21 (stereo partly specified) was tested, and the EC50 was > 40 µM (inactive).
Cc1c(NC(=O)C(=O)/C=C(/O)c2ccccc2)c(=O)n(-c2ccccc2)n1C was tested, and the EC50 was > 40 µM (inactive).
With COc1cc(Br)cc(-c2nc3c(c(=O)[nH]c(=O)n3Cc3ccccc3)n2C)c1O the EC50 was > 40 µM (inactive).
Cc1cc(C)n2cc(CSc3nnc(N)s3)nc2n1 was tested, and the EC50 was > 40 µM (inactive).
C/C(=N\NC(=O)c1cccnc1)c1c(O)cc(C)oc1=O was tested, and the EC50 was > 40 µM (inactive).
In the case of CCc1cc2c(=O)c(Oc3ccccc3)c(C)oc2cc1O, the EC50 is reported as > 40 µM (inactive).
In the case of CCC(=O)N1CCN(CCN=CC2=C(O)CC(c3cccs3)CC2=O)CC1 (stereo unspecified), the EC50 is reported as > 40 µM (inactive).
For Cc1cc(C)c(NC(=O)/C(=C/c2ccccc2)c2ccccc2)c(C)c1, the EC50 was > 40 µM (inactive).
With C=CCn1c(C)cc(C(=O)CSc2nc3ccccc3c(=O)[nH]2)c1C the EC50 was > 40 µM (inactive).
With COC(=O)c1cc(OC)c(OC)cc1NC(=S)Nc1cccc(C(C)=O)c1 the EC50 was > 40 µM (inactive).
With Cc1ccc(/C=C/C(=O)C2C(=O)c3ccccc3C2=O)cc1 the EC50 was > 40 µM (inactive).
For COC(=O)C1=C(C(=O)OC)C(c2ccccc2O)c2sc(=O)[nH]c2S1 (stereo unspecified), the EC50 was > 40 µM (inactive).
For C=CCn1c(-c2ccc(OC)cc2)csc1=Nc1c(C)n(C)n(-c2ccccc2)c1=O, the EC50 was > 40 µM (inactive).
In the case of COc1ccc(C(C)NC(=O)c2ccccc2)cc1 (stereo unspecified), the EC50 is reported as > 40 µM (inactive).
Cc1c(O)c(S(=O)c2ccccc2)c(=O)n(-c2ccccc2)c1-c1ccccc1 (stereo unspecified) was tested, and the EC50 was > 40 µM (inactive).
With CN(C)CC(C(=O)c1ccccc1)c1ccccc1 (stereo unspecified) the EC50 was > 40 µM (inactive).
In the case of CC1=CN2C(=N)/C(=C/c3ccc([N+](=O)[O-])o3)C(=O)N=C2S1, the EC50 is reported as > 40 µM (inactive).
For O=C1OC2(CCCCC2)OC(=O)C1=CNc1nc2ccccc2s1, the EC50 was > 40 µM (inactive).
For COc1ccccc1C(=O)Oc1cc(N)n(S(=O)(=O)c2ccc(C)cc2)n1, the EC50 was > 40 µM (inactive).
With Cc1cc(C)n(-c2ccc(OCC(=O)O)nn2)n1 the EC50 was > 40 µM (inactive).
